Measurements taken from ChEMBL document CHEMBL4354834 (J Med Chem, 2020).
One block for each compound: values may come before it.

What was measured:
[1] = Clearance in rat at 0.70 mg/kg, iv or 1.40 mg/kg, po; format: ADME, organism-based; conditions: in vivo, 0.7 mg/kg
[2] = Half life in rat at 0.70 mg/kg, iv or 1.40 mg/kg, po; format: ADME, organism-based; conditions: in vivo
[3] = Volume of distribution at steady state in rat at 0.70 mg/kg, iv or 1.40 mg/kg, po; format: ADME, organism-based; conditions: in vivo, 0.7 mg/kg, read-out: Vdss
[4] = Oral bioavailability in rat at 1.40 mg/kg; format: ADME, organism-based; conditions: in vivo, 1.4 mg/kg
[5] = AUC in rat at 1.40 mg/kg, po; format: ADME, organism-based; conditions: in vivo, 1.4 mg/kg
[6] = Protein binding in rat; format: ADME; conditions: plasma, read-out: PB (converted)
[7] = AUC in dog at 0.57 mg/kg, po; format: ADME, organism-based, Canis lupus familiaris; conditions: in vivo
[8] = Clearance in dog at 0.40 mg/kg, iv or 0.57 mg/kg, po; format: ADME, organism-based, Canis lupus familiaris; conditions: in vivo, 0.4 mg/kg
[9] = Half life in dog at 0.40 mg/kg, iv or 0.57 mg/kg, po; format: ADME, organism-based, Canis lupus familiaris; conditions: in vivo
[10] = Volume of distribution at steady state in dog at 0.40 mg/kg, iv or 0.57 mg/kg, po; format: ADME, organism-based, Canis lupus familiaris; conditions: in vivo, 0.4 mg/kg, read-out: Vdss
[11] = Oral bioavailability in dog at 0.57 mg/kg; format: ADME, organism-based, Canis lupus familiaris; conditions: in vivo
[12] = Clearance in cynomolgus monkey at 0.72 mg/kg, iv or 1.33 mg/kg, po; format: ADME, organism-based, Macaca fascicularis; conditions: in vivo
[13] = Half life in cynomolgus monkey at 0.72 mg/kg, iv or 1.33 mg/kg, po; format: ADME, organism-based, Macaca fascicularis; conditions: in vivo
[14] = Volume of distribution at steady state in cynomolgus monkey at 0.72 mg/kg, iv or 1.33 mg/kg, po; format: ADME, organism-based, Macaca fascicularis; conditions: in vivo, read-out: Vdss
[15] = Oral bioavailability in cynomolgus monkey at 1.33 mg/kg; format: ADME, organism-based, Macaca fascicularis; conditions: in vivo
[16] = AUC in cynomolgus monkey at 1.33 mg/kg, po; format: ADME, organism-based, Macaca fascicularis; conditions: in vivo
[17] = Protein binding in dog; format: ADME, Canis lupus familiaris; conditions: read-out: PB (converted)
[18] = Protein binding in cynomolgus monkey; format: ADME, Macaca fascicularis; conditions: read-out: PB (converted)
[19] = Clearance in rat at 0.55 mg/kg, iv or 1.10 mg/kg, po; format: ADME, organism-based; conditions: in vivo
[20] = Half life in rat at 0.55 mg/kg, iv or 1.10 mg/kg, po; format: ADME, organism-based; conditions: in vivo
[21] = Volume of distribution at steady state in rat at 0.55 mg/kg, iv or 1.10 mg/kg, po; format: ADME, organism-based; conditions: in vivo, read-out: Vdss
[22] = Oral bioavailability in rat at 1.10 mg/kg; format: ADME, organism-based; conditions: in vivo, 1.1 mg/kg
[23] = AUC in rat at 1.10 mg/kg, po; format: ADME, organism-based; conditions: in vivo, 1.1 mg/kg
[24] = Clearance in dog at 0.40 mg/kg, iv or 0.62 mg/kg, po; format: ADME, organism-based, Canis lupus familiaris; conditions: in vivo, 0.4 mg/kg
[25] = Half life in dog at 0.40 mg/kg, iv or 0.62 mg/kg, po; format: ADME, organism-based, Canis lupus familiaris; conditions: in vivo
[26] = Volume of distribution at steady state in dog at 0.40 mg/kg, iv or 0.62 mg/kg, po; format: ADME, organism-based, Canis lupus familiaris; conditions: in vivo, 0.4 mg/kg, read-out: Vdss
[27] = Oral bioavailability in dog at 0.62 mg/kg; format: ADME, organism-based, Canis lupus familiaris; conditions: in vivo
[28] = AUC in dog at 0.62 mg/kg, po; format: ADME, organism-based, Canis lupus familiaris; conditions: in vivo
[29] = Clearance in cynomolgus monkey at 0.71 mg/kg, iv or 1.52 mg/kg, po; format: ADME, organism-based, Macaca fascicularis; conditions: in vivo
[30] = Half life in cynomolgus monkey at 0.71 mg/kg, iv or 1.52 mg/kg, po; format: ADME, organism-based, Macaca fascicularis; conditions: in vivo
[31] = Volume of distribution at steady state in cynomolgus monkey at 0.71 mg/kg, iv or 1.52 mg/kg, po; format: ADME, organism-based, Macaca fascicularis; conditions: in vivo, read-out: Vdss
[32] = Oral bioavailability in cynomolgus monkey at 1.52 mg/kg; format: ADME, organism-based, Macaca fascicularis; conditions: in vivo
[33] = AUC in cynomolgus monkey at 1.52 mg/kg, po; format: ADME, organism-based, Macaca fascicularis; conditions: in vivo
[34] = Clearance in dog at 0.80 mg/kg, iv; format: ADME, organism-based, Canis lupus familiaris; conditions: in vivo, 0.8 mg/kg
[35] = Half life in dog at 0.80 mg/kg, iv; format: ADME, organism-based, Canis lupus familiaris; conditions: in vivo, 0.8 mg/kg
[36] = Volume of distribution at steady state in dog at 0.80 mg/kg, iv; format: ADME, organism-based, Canis lupus familiaris; conditions: in vivo, 0.8 mg/kg, read-out: Vdss
[37] = Clearance in cynomolgus monkey at 0.80 mg/kg, iv or 1.58 mg/kg, po; format: ADME, organism-based, Macaca fascicularis; conditions: in vivo, 0.8 mg/kg
[38] = Half life in cynomolgus monkey at 0.80 mg/kg, iv or 1.58 mg/kg, po; format: ADME, organism-based, Macaca fascicularis; conditions: in vivo
[39] = Volume of distribution at steady state in cynomolgus monkey at 0.80 mg/kg, iv or 1.58 mg/kg, po; format: ADME, organism-based, Macaca fascicularis; conditions: in vivo, 0.8 mg/kg, read-out: Vdss
[40] = Oral bioavailability in cynomolgus monkey at 1.58 mg/kg; format: ADME, organism-based, Macaca fascicularis; conditions: in vivo
[41] = AUC in cynomolgus monkey at 1.58 mg/kg, po; format: ADME, organism-based, Macaca fascicularis; conditions: in vivo

clearance [1]: 13 to 28 mL/min/kg | half-life [2]: 1.2 to 1.8 h | Vd [3]: 1.3 to 1.9 L/kg | bioavailability [4]: 6 to 18% | AUC [5]: 0.069 to 0.475 µM·h | fraction unbound [6]: 0.033 | AUC [7]: 0.266 µM·h | clearance [8]: 16.4 mL/min/kg | half-life [9]: 2.9 h | Vd [10]: 4 L/kg | bioavailability [11]: 35% | clearance [12]: 20 mL/min/kg | half-life [13]: 3.3 h | Vd [14]: 3.6 L/kg | bioavailability [15]: 4% | AUC [16]: 0.069 µM·h | fraction unbound [17]: 0.05 | fraction unbound [18]: 0.036
SMILES: COC(=O)Nc1ccc2c(c1)NC(=O)[C@H](C)CCC[C@H](NC(=O)c1cnn(-c3cccc(Cl)c3F)c1C)c1cc-2ccn1.O=C(O)C(F)(F)F

clearance [19]: 9 to 21 mL/min/kg | half-life [20]: 2.2 to 4.2 h | Vd [21]: 2.1 to 3.5 L/kg | bioavailability [22]: 13 to 42% | AUC [23]: 0.213 to 1.15 µM·h | fraction unbound [6]: 0.052 | clearance [24]: 5.4 mL/min/kg | half-life [25]: 4.8 h | Vd [26]: 2.4 L/kg | bioavailability [27]: 34% | AUC [28]: 0.922 µM·h | clearance [29]: 9.9 mL/min/kg | half-life [30]: 4 h | Vd [31]: 2.9 L/kg | bioavailability [32]: 15% | AUC [33]: 0.584 µM·h | fraction unbound [17]: 0.038 | fraction unbound [18]: 0.055
SMILES: COC(=O)Nc1ccc2c(c1)NC(=O)[C@H](C)CCC[C@H](NC(=O)c1nnn(-c3cccc(Cl)c3F)c1C)c1cc-2ccn1.O=C(O)C(F)(F)F

clearance [1]: 6 to 29 mL/min/kg | half-life [2]: 1 to 1.4 h | Vd [3]: 0.5 to 2 L/kg | bioavailability [4]: 7 to 25% | AUC [5]: 0.068 to 1.23 µM·h | fraction unbound [6]: 0.026 | clearance [34]: 15.6 mL/min/kg | half-life [35]: 5 h | Vd [36]: 6 L/kg | clearance [37]: 14.5 mL/min/kg | half-life [38]: 3.7 h | Vd [39]: 3.2 L/kg | bioavailability [40]: 19% | AUC [41]: 0.509 µM·h | fraction unbound [17]: 0.043 | fraction unbound [18]: 0.042
SMILES: COC(=O)Nc1ccc2c(c1)NC(=O)[C@H](C)CCC[C@H](NC(=O)c1ncn(-c3cccc(Cl)c3F)c1C)c1cc-2ccn1.O=C(O)C(F)(F)F.O=C(O)C(F)(F)F
